Here are results for six molecules from PubChem BioAssay (NCI).

The term GI50 denotes the concentration at which growth is held to half of that of the control. For orientation: TGI means the concentration at which net growth stops.

The structures appear in SMILES notation. Values joined by “and” are separate entries in the source; they are usually repeats but may differ in a detail not shown here. Equal entries are not always repeated.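 1) Cells in 96-well plates. 2) Compound, 48 h, 5 concentrations. 3) Linear interpolation between surrounding doses. 4) Unreached endpoint = highest concentration. The concentration for 50% growth inhibition is given as GI50. TGI marks complete inhibition of growth.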

Among the test systems are NCI-H23 lung; CAKI-1 renal; BT-549 breast; NCI-H522 lung; MCF7 breast; OVCAR-8 ovarian; EKVX NSCLC; OVCAR-5 ovarian; RXF 393 renal; UO-31 renal.
What all share (assay): DTP human tumour cell line panel, 48 h

With `CC[C@@]1(OP(=O)(O)O)C(=O)OCc2c1cc1n(c2=O)Cc2cc3ccccc3nc2-1`, the concentration for 50% growth inhibition (GI50) was 0.0827 µM in the test with NCI-H23 lung; 0.0688 µM in the test on NCI-H522 lung; 0.427 µM with OVCAR-8 ovarian; 2.13 µM in the test with EKVX NSCLC; 0.553 µM in the test with OVCAR-5 ovarian; 0.144 µM in the test on RXF 393 renal. Moreover, the GI50 in the test on UO-31 renal is 0.099 µM. Further, the TGI was 1.04 µM in the test on CAKI-1 renal; 4.55 µM in the test with BT-549 breast; 3 µM and 1.88 µM in the test on NCI-H522 lung; 1.55 µM in the test with MCF7 breast; over 100 µM with EKVX NSCLC; 3.52 µM and 0.81 µM in the test with RXF 393 renal. Further, in the test on UO-31 renal, the TGI is 0.625 µM and 1.03 µM.
As to `CCCCn1c(=O)[nH]c(N)c([C@@H]2c3c([nH]c(=O)n(CCCC)c3=O)Oc3ccc4ccccc4c32)c1=O`, the GI50 in the test with NCI-H23 lung was 1.73 µM; in the test on CAKI-1 renal, 1.62 µM; with BT-549 breast, 1.83 µM; with NCI-H522 lung, 2.57 µM; with MCF7 breast, 2.88 µM; with OVCAR-8 ovarian it was 1.82 µM. Besides, the GI50 in the test with EKVX NSCLC was 4.64 µM; in the test on OVCAR-5 ovarian, 3.63 µM; in the test with RXF 393 renal it was 2.17 µM; in the test with UO-31 renal it was 1.35 µM. For the same molecule, the TGI in the test on NCI-H23 lung turned out to be 3.7 µM; with CAKI-1 renal it was 3.26 µM; with BT-549 breast, 3.57 µM; in the test on NCI-H522 lung it was 6.36 µM; in the test with MCF7 breast it was 24 µM; in the test with OVCAR-8 ovarian it was 3.51 µM. Moreover, the TGI was found to be 18.8 µM in the test on EKVX NSCLC, 13.8 µM in the test with OVCAR-5 ovarian, 4.27 µM with RXF 393 renal and 2.69 µM with UO-31 renal.
Consider `CC(C)=CC[C@@H]1CC2(CC=C(C)C)C(=O)C(OC3(C(=O)c4ccccc4)C(=O)C4(CC=C(C)C)C[C@@H](CC=C(C)C)C(C)(C)C(CC=C(C)C)(C4=O)C3=O)(C(=O)c3ccccc3)C(=O)C(CC=C(C)C)(C2=O)C1(C)C` (stereo partly drawn), for which the GI50 in the test on NCI-H23 lung is 1.36 µM; with CAKI-1 renal, 1.49 µM; in the test on BT-549 breast, 0.884 µM; in the test on NCI-H522 lung it was 1.07 µM; with MCF7 breast, 1.37 µM; in the test with OVCAR-8 ovarian, 1.7 µM. For the same molecule, the GI50 in the test on EKVX NSCLC is 1.2 µM; in the test with OVCAR-5 ovarian, 1.51 µM; with RXF 393 renal, 1.13 µM; in the test on UO-31 renal it was 1.28 µM. The TGI worked out at 4.48 µM in the test on NCI-H23 lung; 5.95 µM with CAKI-1 renal; 1.89 µM in the test on BT-549 breast; 3.72 µM in the test with NCI-H522 lung; 5.85 µM with MCF7 breast; 6.05 µM with OVCAR-8 ovarian. For the same molecule, the TGI with EKVX NSCLC is 4.2 µM; with OVCAR-5 ovarian it was 8.06 µM; in the test with RXF 393 renal it was 2.69 µM; in the test on UO-31 renal, 4.82 µM.
As to `CN1CCN(Cc2ccc(NC(=O)c3cncc(C#Cc4cnc(N)c5ncccc45)c3)cc2C(F)(F)F)CC1`, the GI50 is 0.284 µM in the test on NCI-H23 lung; 0.231 µM in the test with CAKI-1 renal; 5.1 µM in the test on BT-549 breast; 0.396 µM in the test on NCI-H522 lung; 0.723 µM in the test on MCF7 breast; 0.58 µM in the test on OVCAR-8 ovarian. The GI50 in the test with EKVX NSCLC was 0.589 µM; with OVCAR-5 ovarian it was 0.372 µM; in the test on RXF 393 renal, 0.26 µM; in the test on UO-31 renal it was 0.242 µM. Besides, the TGI in the test on NCI-H23 lung worked out at 6.26 µM; with CAKI-1 renal it was 4.07 µM; in the test on BT-549 breast, 23.6 µM; in the test on NCI-H522 lung it was 8.49 µM; with MCF7 breast, 2.92 µM; in the test with OVCAR-8 ovarian it was 3.51 µM. For the same molecule, the TGI in the test with EKVX NSCLC worked out at 15.5 µM; with OVCAR-5 ovarian it was 1.78 µM; with RXF 393 renal, 1.09 µM; in the test with UO-31 renal, 1.21 µM.
As for `COc1ccc(C2=NN(C(N)=S)C(c3ccc4c(c3)OCO4)C2)cc1` (stereo not drawn), the GI50 in the test on NCI-H23 lung was 3.71 µM; in the test with CAKI-1 renal, 2.6 µM; with BT-549 breast, 2.89 µM; with NCI-H522 lung, 2.4 µM; in the test on MCF7 breast it was 3.23 µM; with OVCAR-8 ovarian, 3.29 µM. The GI50 with EKVX NSCLC was 2.54 µM; in the test with OVCAR-5 ovarian it was 2.79 µM; with RXF 393 renal, 4.28 µM; with UO-31 renal, 1.91 µM. Also, the TGI was 23.3 µM in the test with NCI-H23 lung; 8.91 µM in the test with CAKI-1 renal; 20.5 µM in the test on BT-549 breast; 16.8 µM with NCI-H522 lung; over 100 µM in the test with MCF7 breast; 22.9 µM in the test with OVCAR-8 ovarian. Moreover, the TGI with EKVX NSCLC is 37.9 µM; with OVCAR-5 ovarian, 21.9 µM; in the test on RXF 393 renal, over 100 µM; in the test on UO-31 renal it was 7.99 µM.
Consider `Nc1ccc(/C=C/c2ccc3ncccc3c2)cc1`, for which the GI50 in the test with NCI-H23 lung is over 100 µM; with BT-549 breast it was 5.29 µM; with NCI-H522 lung, 19.9 µM; with MCF7 breast it was over 100 µM; in the test on OVCAR-8 ovarian it was over 100 µM; in the test on EKVX NSCLC, 31.7 µM. In addition, the figures for the GI50 in the test with OVCAR-5 ovarian, with RXF 393 renal and in the test on UO-31 renal were over 100 µM, 73.2 µM and 2.32 µM, respectively. For the same molecule, the TGI in the test with NCI-H23 lung, with CAKI-1 renal, in the test on BT-549 breast, with NCI-H522 lung, with MCF7 breast and with OVCAR-8 ovarian was over 100 µM throughout. Further, the TGI in the test on EKVX NSCLC, in the test on OVCAR-5 ovarian, in the test on RXF 393 renal and with UO-31 renal was over 100 µM each time.
